Data on 7 compounds can be found in article PMC10987960.

In one test the target is T1, PEDV 3CL^pro (Porcine epidemic diarrhea virus CV777, UniProt P0C6Y4).
T1 construct: gene rep; mature nsp5 cut from replicase polyproteins pp1a/pp1ab; N- and C-terminal His tags (kept, no cleavage told), pET-28a(+), E. coli BL21(DE3), nickel column; docking used PDB 4XFQ
T1 sequence (P0C6Y4 2998-3299 limits assumed): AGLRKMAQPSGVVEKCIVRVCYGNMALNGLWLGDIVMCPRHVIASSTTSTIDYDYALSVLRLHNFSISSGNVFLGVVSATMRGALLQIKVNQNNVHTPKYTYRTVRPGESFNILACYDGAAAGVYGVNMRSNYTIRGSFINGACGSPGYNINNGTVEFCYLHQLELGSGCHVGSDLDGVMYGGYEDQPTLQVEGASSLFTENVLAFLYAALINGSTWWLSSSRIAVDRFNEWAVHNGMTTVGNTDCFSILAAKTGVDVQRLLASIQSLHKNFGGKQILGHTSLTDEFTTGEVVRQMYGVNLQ
The test can be described thus: FRET protease assay, Dabcyl/Edans peptide. The format is biochemical.
Details: not given
As to `O=C(O)[C@H]1O[C@@H](Oc2cc3oc(-c4ccccc4)cc(=O)c3c(O)c2O)[C@H](O)[C@@H](O)[C@@H]1O` [Baicalin], 65.8 ± 6.57 µM corresponded to half-maximal inhibition (IC50).

`O=c1cc(-c2ccccc2)oc2cc(O)c(O)c(O)c12` [Baicalein] had an IC50 of 9.5 ± 1.02 µM. Compared with the last compound, the IC50 is about 6.9-fold lower.

In another test the target is T1, PEDV 3CL^pro. The test can be described thus: FRET protease assay, Dabcyl/Edans peptide. In kind it is biochemical. The settings on record: read-out: Inhibitory rate. An excerpt: FRET protease assay, Dabcyl/Edans peptide on PEDV 3CL^pro
Consider `O=c1c(O)c(-c2ccc(O)c(O)c2)oc2cc(O)c(O)c(O)c12` [compound 3, Quercetagetin], for which the inhibition at 20 µM came to 91.8 ± 2.74%.

Turning to `O=c1c(O)c(-c2cc(O)c(O)c(O)c2)oc2cc(O)cc(O)c12` [compound 6, Myricetin], the inhibition at 20 µM was 75.3 ± 2.33%.

As for `O=c1c(-c2ccc(O)cc2)coc2cc(O)ccc12` [compound 4, Daidzein], the inhibition at 20 µM worked out at 91.26 ± 0.85%.

Regarding `O=C(O[C@@H]1Cc2c(O)cc(O)cc2O[C@H]1c1cc(O)c(O)c(O)c1)c1cc(O)c(O)c(O)c1` [compound 1, (−)-Gallocatechin gallate], the inhibition at 20 µM amounted to 97.65 ± 0.35%.

Regarding `O=c1c(O)c(-c2ccc(O)c(O)c2)oc2cc(O)ccc12` [compound 2, Fisetin], the inhibition at 20 µM turned out to be 96.8 ± 2.64%.
